Consider two compounds from patent US20120135089A1, “E3 LIGASE INHIBITORS” (priority 2009, published 2012).

SMILES strings stand for the structures.

Assay [1] concerns p53-Ser15 phosphorylation. The experiment in a line: p53-Ser15 phosphorylation in RKO cells (Western blot). The format is cell-based, human. The settings on record: 6 hours. As for the experimental part: H1229 cells were transfected with Mdm2-Flag or remained untransfected. Cells were treated with 5 μg/ml (14 μM) MEL23, 5 μg/ml (15 μM) MEL24, 10 μM MG132, or 1 μg/ml of doxorubicin for 6 hours. Cells were lysed and analyzed by Western blotting using anti-Mdm2 and anti-actin antibodies. The lower band indicated with a star seen with the Mdm2 antibody is a non-specific band. NT indicates a no treatment control. […] RKO and RK0-E6 cells were treated with 5 μg/ml (14 μM) MEL23, 5 μg/ml (15 μM) MEL24, 10 μM MG132, 0.5 μg/ml doxorubicin, 0.5 μg/ml camptothecin or 25 μg/ml Etoposide for 6 hours. Cells were lysed and analyzed by Western blotting using anti-Mdm2, anti-p53, and anti-actin antibodies. The lower band indicated with a star seen with the anti-Mdm2 antibody is a non-specific band. […] RKO cells were treated with 5 μg/ml (14 μM) MEL23, 5 μg/ml (15 μM) MEL24, 10 μM MG132 or 2 μg/ml doxorubicin for 6 hours. Cells were lysed and analyzed by Western blotting using anti-Mdm2, anti-p53, anti-phospho-Ser15 p53, and anti-eiF4E antibodies.
Cells were seeded and treated with the indicated compound(s). Cells were lysed after each time point in a buffer of 50 mM TrisHCl pH 7.5, 200 mM NaCl, 0.5% NP-40, and 1 complete mini EDTA-free protease inhibitor cocktail tablet per 10 mL of buffer (Roche, Cat. No. 8360170). Protein content was quantified using a Biorad protein assay reagent (Bio-Rad Laboratories, Hercules, Calif., Cat. No. 500-0006). SDS sample buffer was added to the samples, and the mixture was boiled for 5 minutes. Equal amounts of protein were resolved on a 1D SDS-PAGE gel. Following separation proteins were transferred to nitrocellulose membrane, blocked with 5% milk, and then incubated with primary antibody overnight at 4° C. The membrane was incubated with secondary-HRP antibody for 45 minutes at room temperature and developed with SuperSignal West Pico Substrate (Pierce, Rockford, Ill., Cat. No. 34080).
A general note: A western blot detects proteins with antibodies after separation by electrophoresis.

The next assay concerns p53 ubiquitination. The experiment in a line: cell-based p53 ubiquitination assay in H1299 cells. On the set-up: species or system human. Conditions: H1299 transfected with p53, Mdm2, ubiquitin; 10 μg/ml pre-treatment, 10 μM MG132. As to the method: To obtain the results shown in FIG. 4A, Mdm2-luciferase cells were transfected with ubiquitin-HA and treated 8 hours later with 10 μg/ml (28 μM) MEL23, 10 μg/ml (31 μM) MEL24, or a DMSO control. After 16 hours, cells were additionally treated with 10 μM MG132 or a DMSO control. After 3 hours, cells were lysed and immunoprecipitated for 3 hours with anti-HA affinity matrix. Total lysates and immunoprecipitated samples were analyzed by Western blotting using anti-Mdm2 antibody. NT indicates a no treatment control. […] After 8 hours, cells were treated with 10 μg/ml (28 μM) MEL23, 10 μg/ml (31 μM) MEL24, or a DMSO control. After 16 hours, cells were additionally treated with 10 μM MG132 or a DMSO control. After 3 hours cells were lysed and analyzed by Western blotting using anti-p53 antibody. “p53-Ub” indicates the slower migrating species of the protein that are the ubiquitin-conjugated forms.
To test the effects of the MEL compounds on p53 ubiquitination, H1299 cells were transfected with plasmids expressing p53, Mdm2, and ubiquitin and pre-treated with 10 μg/ml MEL23 or MEL24, followed by treatment with 10 μM MG132. Ubiquitination of p53 was analyzed by Western blotting. […] In fact, the half-life of p53 increased from an hour to greater than 6 hours with 5 μg/ml MEL23 treatment (FIG. 32). Thus, treatment with MEL23 and MEL24 inhibits ubiquitin conjugation to Mdm2 and p53.

For assay [2], the system named is RKO, RKO E6, H1299 and MEF's. The experiment in a line: cell cycle analysis by propidium iodide flow cytometry. Format: cell-based. The settings on record: two days incubation. As to the method: RKO, RKO E6, H1299 and MEF's were seeded and treated with designated concentration of MEL23. After two days incubation, cells were harvested and fixed in ethanol, followed by staining in a solution of 7.3 μM RNaseA and 98.7 μM propidium iodide (Sigma, St. Louis, Mo.). The samples were read on a FACS Calibur flow cytometer (BD Biosciences, San Jose, Calif.) and analyzed with CeliQuest software (BD Biosciences).

As for `CCCCn1c(=O)[nH]c(O)c(C2NCCc3c2[nH]c2ccccc32)c1=O` (stereo not drawn) [MEL23], the “phosphorylation of p53 at serine-15” value in assay [1] is given as “lack of phosphorylation of p53 at serine-15”. The “p53 ubiquitination in cells” value with p53 ubiquitination is recorded as “eliminated by pre-treatment”. Besides, the cell cycle entry in assay [2] is reported as “causes G2 cell cycle arrest”.

`Cn1c(O)c(C2NCCc3c2[nH]c2ccccc32)c(=O)n(C)c1=O` (stereo not drawn) [MEL24]: in assay [1], the “phosphorylation of p53 at serine-15” value is given as “lack of phosphorylation of p53 at serine-15”. In addition, the “p53 ubiquitination in cells” value with p53 ubiquitination is reported as “eliminated by pre-treatment”. Moreover, in assay [2], the cell cycle entry is listed as “promotes G2 cell cycle arrest”.
